Measurements taken from ChEMBL document CHEMBL3525905, “Brain distribution and bioavailability of elacridar after different routes of administration in the mouse” (Drug Metab Dispos, 2012).

Legend:
[1] = AUC (0 to infinity) in wild type FVB mouse brain at 100 mg/kg, ip; type: ADME, organism-based; design: dose 100 mg/kg, route intraperitoneal, time infinity
[2] = Cmax in wild type FVB mouse brain at 100 mg/kg, ip; type: ADME, organism-based; design: dose 100 mg/kg, route intraperitoneal
[3] = Lipophilicity, logP of the compound; type: physicochemical; settings: octanol/water
[4] = Tmax in wild type FVB mouse plasma at 100 mg/kg, po; type: ADME, organism-based; design: dose 100 mg/kg, route oral
[5] = Ratio of AUC in brain to plasma in wild type FVB mouse plasma at 100 mg/kg, ip; type: ADME, organism-based; design: dose 100 mg/kg, route intraperitoneal; settings: brain and plasma
[6] = Cmax in wild type FVB mouse brain at 100 mg/kg, po; type: ADME, organism-based; design: dose 100 mg/kg, route oral
[7] = AUC (0 to infinity) in wild type FVB mouse brain at 100 mg/kg, po; type: ADME, organism-based; design: time infinity, dose 100 mg/kg, route oral
[8] = Tmax in wild type FVB mouse plasma at 2.5 mg/kg, iv; type: ADME, organism-based; design: dose 2.5 mg/kg, route intravenous
Plasma [9] = test: Apparent plasma clearance in wild type FVB mouse plasma at 2.5 mg/kg, iv; type: ADME, organism-based; design: dose 2.5 mg/kg, route intravenous; settings: in vivo
[10] = Terminal half life in wild type FVB mouse plasma at 100 mg/kg, po; type: ADME, organism-based; design: dose 100 mg/kg, route oral; settings: read-out: beta t1/2 (converted)
[11] = Terminal half life in wild type FVB mouse plasma at 2.5 mg/kg, iv; type: ADME, organism-based; design: dose 2.5 mg/kg, route intravenous; settings: read-out: beta t1/2 (converted)
[12] = AUC (0 to last) in wild type FVB mouse brain at 2.5 mg/kg, iv; type: ADME, organism-based; design: time 0 - last, dose 2.5 mg/kg, route intravenous
[13] = Terminal half life in wild type FVB mouse brain at 100 mg/kg, po; type: ADME, organism-based; design: dose 100 mg/kg, route oral; settings: read-out: beta t1/2 (converted)
[14] = Tmax in wild type FVB mouse brain at 100 mg/kg, ip; type: ADME, organism-based; design: dose 100 mg/kg, route intraperitoneal
[15] = AUC (0 to last) in wild type FVB mouse plasma at 2.5 mg/kg, iv; type: ADME, organism-based; design: time 0 - last, dose 2.5 mg/kg, route intravenous
[16] = […] Kp, ratio of AUC in brain to plasma in wild type FVB mouse plasma at 10 mg/kg, ip; type: ADME, organism-based; design: dose 10 mg/kg, route intraperitoneal; settings: brain and plasma
Plasma [17] = test: Bioavailability in wild type FVB mouse at 2.5 mg/kg, iv; type: ADME, organism-based; settings: in vivo
[18] = Ratio of AUC in brain to plasma in wild type FVB mouse plasma at 2.5 mg/kg, iv; type: ADME, organism-based; design: dose 2.5 mg/kg, route intravenous; settings: brain and plasma
[19] = Apparent oral volume of distribution in wild type FVB mouse at 100 mg/kg, po; type: ADME, organism-based; design: dose 100 mg/kg, route oral; settings: plasma
[20] = Tmax in wild type FVB mouse plasma at 100 mg/kg, ip; type: ADME, organism-based; design: dose 100 mg/kg, route intraperitoneal
[21] = Cmax in wild type FVB mouse plasma at 2.5 mg/kg, iv; type: ADME, organism-based; design: dose 2.5 mg/kg, route intravenous
Plasma [22] = test: Bioavailability in wild type FVB mouse at 100 mg/kg, ip; type: ADME, organism-based; settings: in vivo
[23] = Apparent oral volume of distribution in wild type FVB mouse plasma at 2.5 mg/kg, iv; type: ADME, organism-based; design: dose 2.5 mg/kg
[24] = AUC (0 to last) in wild type FVB mouse plasma at 100 mg/kg, ip; type: ADME, organism-based; design: time 0 - last, dose 100 mg/kg, route intraperitoneal
[25] = Terminal half life in wild type FVB mouse plasma at 100 mg/kg, ip; type: ADME, organism-based; design: dose 100 mg/kg, route intraperitoneal; settings: read-out: beta t1/2 (converted)
Plasma [26] = test: AUC (0 to infinity) in wild type FVB mouse plasma at 100 mg/kg, ip; type: ADME, organism-based; design: time infinity, dose 100 mg/kg, route intraperitoneal; settings: in vivo
[27] = Cmax in wild type FVB mouse brain at 2.5 mg/kg, iv; type: ADME, organism-based; design: dose 2.5 mg/kg, route intravenous
[28] = AUC (0 to last) in wild type FVB mouse plasma at 100 mg/kg, po; type: ADME, organism-based; design: time 0 - last, dose 100 mg/kg, route oral
[29] = Ratio of AUC in brain to plasma in wild type FVB mouse plasma at 100 mg/kg, po; type: ADME, organism-based; design: dose 100 mg/kg, route oral; settings: brain and plasma
[30] = AUC (0 to infinity) in wild type FVB mouse brain at 2.5 mg/kg, iv; type: ADME, organism-based; design: time infinity, dose 2.5 mg/kg, route intravenous
Plasma [31] = test: AUC (0 to infinity) in wild type FVB mouse plasma at 2.5 mg/kg, iv; type: ADME, organism-based; design: time infinity, dose 2.5 mg/kg, route intravenous; settings: in vivo
[32] = Terminal half life in wild type FVB mouse brain at 2.5 mg/kg, iv; type: ADME, organism-based; design: dose 2.5 mg/kg, route intravenous; settings: read-out: beta t1/2 (converted)
[33] = Apparent plasma clearance in wild type FVB mouse plasma at 100 mg/kg, ip; type: ADME, organism-based; design: dose 100 mg/kg, route intraperitoneal
[34] = Apparent oral volume of distribution in wild type FVB mouse plasma at 100 mg/kg, ip; type: ADME, organism-based; design: dose 100 mg/kg
[35] = Terminal half life in wild type FVB mouse brain at 100 mg/kg, ip; type: ADME, organism-based; design: dose 100 mg/kg, route intraperitoneal; settings: read-out: beta t1/2 (converted)
[36] = Tmax in wild type FVB mouse brain at 2.5 mg/kg, iv; type: ADME, organism-based; design: dose 2.5 mg/kg, route intravenous
[37] = AUC (0 to last) in wild type FVB mouse brain at 100 mg/kg, po; type: ADME, organism-based; design: time 0 - last, dose 100 mg/kg, route oral
[38] = AUC (0 to infinity) in wild type FVB mouse plasma at 100 mg/kg, po; type: ADME, organism-based; design: time infinity, dose 100 mg/kg, route oral
[39] = Apparent plasma clearance in wild type FVB mouse at 100 mg/kg, po; type: ADME, organism-based; design: dose 100 mg/kg, route oral
[40] = Cmax in wild type FVB mouse plasma at 100 mg/kg, ip; type: ADME, organism-based; design: dose 100 mg/kg, route intraperitoneal
[41] = Oral bioavailability in wild type FVB mouse at 100 mg/kg; type: ADME, organism-based; settings: plasma
[42] = Cmax in wild type FVB mouse plasma at 100 mg/kg, po; type: ADME, organism-based; design: dose 100 mg/kg, route oral
[43] = Tmax in wild type FVB mouse brain at 100 mg/kg, po; type: ADME, organism-based; design: dose 100 mg/kg, route oral
[44] = AUC (0 to last) in wild type FVB mouse brain at 100 mg/kg, ip; type: ADME, organism-based; design: time 0 - last, dose 100 mg/kg, route intraperitoneal

Compound: COc1cc2c(cc1OC)CN(CCc1ccc(NC(=O)c3cccc4c(=O)c5cccc(OC)c5[nH]c34)cc1)CC2 [ELACRIDAR]
- AUC(0-inf) [1]: 725 ng·h/mL
- Cmax [2]: 61 ng/mL
- logP [3]: 5.67
- Tmax [4]: 8 h
- Kp [5]: 0.48
- Cmax [6]: 4340 ng/mL
- AUC(0-inf) [7]: 105000 ng·h/mL
- Tmax [8]: 0.5 h
- CL/F (Plasma [9]): 0.46 mL/min
- half-life [10]: 20 h
- half-life [11]: 4.4 h
- AUC(0-t) [12]: 2140 ng·h/mL
- half-life [13]: 16 h
- Tmax [14]: 4 h
- AUC(0-t) [15]: 2310 ng·h/mL
- Kp [16]: 0.0784
- F (Plasma [17]): 100%
- Kp [18]: 0.82
- Vd/F [19]: 3.5 L
- Tmax [20]: 0.5 h
- Cmax [21]: 564 ng/mL
- F (Plasma [22]): 13%
- Vd/F [23]: 0.17 L
- AUC(0-t) [24]: 1060 ng·h/mL
- half-life [25]: 4.3 h
- AUC (Plasma [26]): 90.3 µg·min/mL
- Cmax [27]: 1050 ng/mL
- AUC(0-t) [28]: 13200 ng·h/mL
- Kp [29]: 4.31
- AUC(0-inf) [30]: 2190 ng·h/mL
- AUC (Plasma [31]): 161.4 µg·min/mL
- half-life [32]: 1.5 h
- CL/F [33]: 33.2 mL/min
- Vd/F [34]: 12.3 L
- half-life [35]: 9.2 h
- Tmax [36]: 0.5 h
- AUC(0-t) [37]: 64800 ng·h/mL
- AUC(0-inf) [38]: 24300 ng·h/mL
- CL/F [39]: 2.05 mL/min
- Cmax [40]: 295 ng/mL
- bioavailability [41]: 22%
- Cmax [42]: 780 ng/mL
- Tmax [43]: 8 h
- AUC(0-t) [44]: 332 ng·h/mL
